Assays:
gastric acid output [1] = experiment: Gastric antisecretory activity in the two hour pylorus ligated (Shay) rat; assay type: in vivo, rat (male Long Evans); settings: for Percent Inhibition Acid Output / ED50: 2 h; for ED50: two hour pylorus ligated rat; for Potency Ratio: relative to cimetidine = 1.00
Description: The pyloric ligation procedure in the rat was designed by Shay et al., Gastroenterology, 5, 53 (1945) for the study of perforating gastric ulcers; however, as the method became known, it was also employed as a means of studying rat gastric secretion, Shay et al., Gastroenterology, 26, 906 (1954), Brodie, D. A., Am. J. Dig. Dis., 11, 231 (1966). A modification of this procedure is presently used to evaluate compounds for gastric antisecretory activity.
Male Long Evans rats, 280-300 gm., are used. The aimals are placed in individual cages and fasted for 24 hours with free access to water. Under ther anesthesia, the stomach is reached through a midline incision, and a cotton-thread ligature is placed around the pylorus. […] All compounds are solubilized with one equivalent of HCl and brought to the proper volume with water. The animals are returned to their cages from which the water bottles have been removed and two hours later are sacrificed with ether. The stomach is removed and the two hour gastric collection is drained into a graduated test tube for volume determination. Titratable acidity is measured by titrating a one ml. sample to pH 7.0 with 0.02 N NaOH, using an Autoburet and an electrometric pH meter (Radiometer). Titratable acid output is calculated in microequivalents by multiplying the volume in milliliters by the acid concentration in milliequivalents per liter. The percent inhibition of acid output is calculated as follows [formula]

[2] = molecular target: T1, histamine H2 -receptors (isolated guinea pig right atria) (Cavia porcellus, UniProt P47747); experiment: Histamine H2-receptor antagonism, isolated guinea pig atria assay; assay type: cell-based, guinea pig (male Hartley strain); settings: for Histamine ED50 With 95% Confidence Limits: histamine ED50 in presence of test compound 3 × 10^-5 M, 30 minute incubation; for Concentration-Response Curve Displacement Factor / Activity Ratio Relative to Cimetidine: test compound 3 × 10^-5 M; for Activity Ratio Relative to Cimetidine: cimetidine = 1.0
T1 construct: The spontaneously beating right atrium was dissected free from other tissues; from tissue; host or cells: isolated spontaneously beating right atrium of male Hartley guinea pigs
T1 sequence (P47747 whole entry): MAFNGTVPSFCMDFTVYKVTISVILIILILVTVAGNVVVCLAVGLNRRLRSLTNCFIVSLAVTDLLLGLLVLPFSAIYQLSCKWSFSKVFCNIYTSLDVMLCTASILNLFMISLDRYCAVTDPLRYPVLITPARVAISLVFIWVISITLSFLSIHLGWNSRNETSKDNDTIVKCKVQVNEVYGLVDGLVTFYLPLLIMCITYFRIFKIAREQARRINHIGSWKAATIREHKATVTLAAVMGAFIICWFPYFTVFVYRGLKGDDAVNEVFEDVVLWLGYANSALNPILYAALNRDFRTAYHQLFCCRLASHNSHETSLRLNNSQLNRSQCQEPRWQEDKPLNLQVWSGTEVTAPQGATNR
Method: Subsequent investigations by Hughes and Coret, Proc. Soc. […] Black et al., Agents and Actions, 3, 133 (1973) and Brimblecombe et al., Fed. […] The present comparative studies were carried out using a modification of the procedure reported by Reinhardt et al., Agents and Actions, 4, 217 (1974).
Male Hartley strain guinea pigs (350-450 gm.) were sacrificed by a blow on the head. The heart was excised and placed in a Petri dish of oxygenated (95% O2, 5% CO2) modified Krebs solution (g./liter: NaCl 6.6, KCl 0.35, MgSO4.7 H2 O 0.295, KH2 PO4 0.162, CaCl2 0.238, NaHCO3 2.1 and dextrose 2.09). The spontaneously beating right atrium was dissected free from other tissues and a silk thread (4-0) attached to each end. The atrium was suspended in a 20 ml. muscle chamber containing oxygenated modified Krebs solution maintained at 32° C. Atrial contractions were recorded isometrically by means of a Grass FT 0.03 force displacement transducer and recordings of contractile force and rate were made with a Beckman RP Dynograph.
A resting tension of 1 g. was applied to the atrium and it was allowed to equilibrate for 1 hour.
Concentration-response curve displacement factors were calculated as follows: [formula] […] [formula]

peptic ulcer disease = settings: clinical evaluation; cited from earlier work
histamine H2 -receptors = settings: isolated guinea pig right atria; cited from earlier work
gastric secretion = settings: cited from earlier work
gastric acid output [3] = experiment: Gastric antisecretory activity in the gastric fistula dog; assay type: in vivo, beagle dogs; settings: for Percent Inhibition Acid Output: histamine infusion
Method: Thomas type [Thomas, J. E., Proc. Soc. Exp. Biol. Med., 46, 260 ([…])] stainless steel cannulae are inserted into the stomachs of beagle dogs (10-12 kg.) just orad to the pyloric gland area near the greater curvature to provide a chronic gastric fistula. Animals are allowed to recover for at least two months before any testing is done. Dogs are fasted overnight (~18 hours) with water ad lib prior to each experiment. The dogs are placed in a sling and an eight inch inside needle catheter (C. R. Baird, Inc.) with a two inch 17 gauge needle is inserted into a leg vein for purposes of drug administration. Gastric secretions are collected every 15 minutes by gravity drainage from the opened cannula. […] A modification of the procedure described by Grossman and Konturek, Gastroenterology, 66, 517 (1974) was followed. […] Each 15 minute sample of gastric juice is measured to the nearest 0.5 ml. and titratable acidity against 0.02 N NaOH (endpoint pH 7.0) is measured with an Autoburet and pH meter (radiometer). The percent inhibition of acid output is calculated as described in the pylorus ligated rat procedure.

[4] = clinical; cited from earlier work
H2 receptors = settings: cited from earlier work

## CNC(=C[N+](=O)[O-])NCCSCc1ccc(CN(C)C)o1 [Compound XVI, reference compound]
Gastric acid output [1]; 5 μ Mole/kg ip
  Percent Inhibition Acid Output: 42%
Gastric acid output [1]; 10 μ Mole/kg ip
  Percent Inhibition Acid Output: 77%
Gastric acid output [1]; 20 μ Mole/kg ip
  Percent Inhibition Acid Output: 89%
Gastric acid output [1]; ip
  ED50: 4.52 µmol/kg
  Potency Ratio: 2.31 times
[2]
  Histamine ED50 With 95% Confidence Limits: 11.97 µg/mL
  Concentration-Response Curve Displacement Factor: 38.61

## CNC(=S)NCCCCc1cnc[nH]1 [Burimamide]
Peptic ulcer disease
  clinical effectiveness: first clinically effective H2 -receptor antagonist
Histamine H2 -receptors
  H2-receptor mediated effect in atria (in words): competitive antagonist of these receptors
Gastric secretion; animals and man
  inhibition of gastric secretion: inhibits gastric secretion in animals and man

## C#CCNC(=C[N+](=O)[O-])NCCSCc1ccc(CN(C)C)o1 [BL-5966, 1-Nitro-2-(2-propynylamino)-2-{2-[(5-dimethylaminomethyl-2-furyl)methylthio]ethylamino}ethylene]
Gastric acid output [1]; 0.625 μ Mole/kg ip
  Percent Inhibition Acid Output: 27%
Gastric acid output [1]; 1.25 μ Mole/kg ip
  Percent Inhibition Acid Output: 36%
Gastric acid output [1]; 2.5 μ Mole/kg ip
  Percent Inhibition Acid Output: 59%
Gastric acid output [1]; 5 μ Mole/kg ip
  Percent Inhibition Acid Output: 83%
Gastric acid output [1]; ip
  ED50: 1.8 µmol/kg
  Potency Ratio: 5.81 times
Gastric acid output [1]; ip, vs Compound XVI
  potency relative to Compound XVI: 2.52 times
Gastric acid output [1]; rats
  potency as inhibitor of gastric secretion (in words): more potent than either cimetidine or Compound XVI
Gastric acid output [3]; 0.0469 μ Mole/kg iv
  Percent Inhibition Acid Output: 32%
Gastric acid output [3]; 0.0938 μ Mole/kg iv
  Percent Inhibition Acid Output: 47%
Gastric acid output [3]; 0.1875 μ Mole/kg iv
  Percent Inhibition Acid Output: 46%
Gastric acid output [3]; 0.375 μ Mole/kg iv
  Percent Inhibition Acid Output: 90%
Gastric acid output [3]; Canis lupus familiaris, iv, gastric fistula dog
  ED50: 0.12 µmol/kg
Gastric acid output [3]; dogs
  potency as inhibitor of gastric secretion (in words): more potent than either cimetidine or Compound XVI
Gastric acid output [3]; iv, relative to cimetidine = 1.0
  Potency Ratio: 11.5 times
[2]
  Histamine ED50 With 95% Confidence Limits: 32.70 µg/mL
  Concentration-Response Curve Displacement Factor: 181.67
[2]; isolated guinea pig atria
  potency as histamine H2 receptor antagonist (in words): more potent than either cimetidine or Compound XVI
[2]; isolated guinea pig right atria, vs Compound XVI
  activity relative to Compound XVI: about 4.80 times

## CNC(=S)NCCSCc1nc[nH]c1C [Metiamide]
[4]
  toxicity (agranulocytosis): toxicity (agranulocytosis)
Gastric secretion; man, oral
  oral activity: orally active in man
H2 receptors
  H2 antagonist potency/effectiveness (in words): more potent than burimamide

## NCCc1c[nH]cn1 [Histamine]
Histamine H2 -receptors
  H2-receptor mediated effect in atria (in words): concentration-related increases in the contractile rate

## C#CCNC(=NCCSCc1ccc(CN(C)C)o1)NC#N [BL-5993, N-Cyano-N'-(2-propyn-1-yl)-N"-{2-[(5-dimethylaminomethyl-2-furyl)methylthio]ethyl}guanidine]
Gastric acid output [1]; 10 μ Mole/kg ip
  Percent Inhibition Acid Output: 34%
Gastric acid output [1]; 20 μ Mole/kg ip
  Percent Inhibition Acid Output: 71%
Gastric acid output [1]; ip
  ED50: 12.5 µmol/kg
  Potency Ratio: 0.83 times
[2]
  Histamine ED50 With 95% Confidence Limits: 4.28 µg/mL
  Concentration-Response Curve Displacement Factor: 23.78
  Activity Ratio Relative to Cimetidine: 0.94 times
[2]; listed as BL-5933
  Activity Ratio Relative to Cimetidine: about 0.94 times

## CN=C(NC#N)NCCSCc1nc[nH]c1C [Cimetidine]
Peptic ulcer disease
  clinical effectiveness: effective therapeutic agent in the treatment of peptic ulcer disease
[4]
  toxicity (agranulocytosis): without producing agranulocytosis
H2 receptors
  H2 antagonist potency/effectiveness (in words): as effective an H2 antagonist as metiamide
[2]
  Histamine ED50 With 95% Confidence Limits: 4.80 µg/mL
  Concentration-Response Curve Displacement Factor: 25.26

From US4203909A, “Furan compounds” (Bristol-Myers Company, priority 1978, dated 1980)
